# Values of other authors as cited in Sander's compilation of Henry's law constants (doi:10.1093/bja/45.3.294).
# Assay: Henry solubility constant Hcp at 310 K (mol/(m3 Pa))
# Conditions: reference: Allott et al. (1973); cited value
row,SMILES,Henry solubility constant Hcp at 310 K
1,"FC(F)OC(Cl)C(F)(F)F (stereo not given) [1-chloro-2,2,2-trifluoroethyl difluoromethyl ether]",0.00024
2,"FC(F)OC(F)(F)C(F)Cl (stereo not given) [2-chloro-1,1,2-trifluoroethyl difluoromethyl ether]",0.0003
3,C=COC=C [divinyl ether],0.00054

# Assay: Henry solubility constant Hcp at 298.15 K (mol/(m3 Pa))
# Conditions: reference: Allott et al. (1973); cited value
row,SMILES,Henry solubility constant Hcp
1,"FC(F)(F)C(Cl)Br (stereo not given) [1-bromo-1-chloro-2,2,2-trifluoroethane]",0.00053
2,CCOCC [diethyl ether],0.0096
3,ClC=C(Cl)Cl [trichloroethene],0.0011
4,"COC(F)(F)C(Cl)Cl [2,2-dichloro-1,1-difluoro-1-methoxyethane]",0.003
5,"FC(Br)C(F)(F)F (stereo not given) [1-bromo-1,2,2,2-tetrafluoroethane]",0.00017
6,"C=COCC(F)(F)F [(2,2,2-trifluoroethoxy)-ethene]",0.00055

# Continued, values first:
row,Henry solubility constant Hcp,SMILES
1,4.5e-05,[Xe] [xenon]
2,2.5e-05,[Kr] [krypton]
3,0.00025,[N-]=[N+]=O [dinitrogen monoxide]
4,4.6e-05,C=C [ethene]
5,0.00073,CCCl [chloroethane]
6,0.00011,C1CC1 [cyclopropane]
